Assay [1] relates to human gastric cancer cell line MKN-74. The assay is described as follows: tritiated thymidine incorporation, tumor cell growth (MKN-74). It counts as cell-based. Conditions: MKN-74, FIG. 2C. The source says:
FIGS. 2A-2C show the effect of sphingosine derivatives on human tumor cell growth. In FIG. 2A the growth of human colonic cancer cell line COLO-205 was monitored. In FIG. 2B the growth of human lung cancer cell line LU-65 was monitored. In FIG. 2C the growth of human gastric cancer cell line MKN-74 was monitored. In each Figure the ordinate represents the percent inhibition of tritiated thymidine incorporation, the solid circles represent sphingosine, the open circles represent N,N-dimethylsphingosine and the triangles represent N,N,N-trimethylsphingosine.
An in vitro assay relying on tritiated thymidine incorporation can be used to ascertain the effect of various compounds on cell proliferation. Briefly, tumor cells are seeded in flat bottom 96 well plates (Corning, N.Y.) at a concentration of 2×10^4 cells per well. The cells are cultured for 2 days in DMEM containing various concentrations of sphingoid, which is added as a PBS solution. The medium then is supplemented with tritiated thymidine at a concentration of 0.5 μCi per well. Following a six hour incubation the cells are collected using the PHD Cell Harvester (Cambridge Technology, Cambridge, Mass.) and amounts of incorporated radioactivity are determined after adding a suitable cell lysing agent and scintillation cocktail, such as ScintiVerse BD (Fisher Scientific, Fairlawn, Calif.) which performs both functions. […]
In general terms: Dividing cells build labelled thymidine or BrdU into new DNA.

In the next assay the test system is BL6 cells. Briefly: BL6 lung metastatic deposits in mice. It counts as in vivo. The source says: FIGS. 6A-C depict the effect of N,N,N-trimethylsphingosine on lung metastatic deposits after intravenous injection of BL6 cells into mice. Each graph represents the mean and standard deviation of results obtained in 8 animals. In FIG. 6A the open bars depict the total number of lung colony deposits; the stippled bars depict the number of lung colonies with a diameter of greater than 1 mm; and the solid bars depict the number of lung colonies with a diameter of less than 1 mm. Bars 1-3 depict the number of deposits observed 14 days after injection. Bars 4-6 depict the number of lung colony deposits in animals that received BL6 cells and 1 minute later received 0.2 mg of N,N,N-trimethylsphingosine (TMS). […]
In FIG. 6B the number of lung colonies was determined 16 days after treatment, the treatment consisting of varying doses and routes of administration. […]
In FIG. 6C the dose responsiveness of BL6 metastatic potential to TMS is presented. […] Sixteen days after treatment, the mice were sacrificed, lungs opened and the number of colonies in the lungs were counted under a dissecting microscope.
The effectiveness of TMS in vivo is summarized in the graphs comprising FIG. 6. BL6 cells were injected into mice and metastatic deposits in the lung were assessed after various treatments including route and timing of administration.

The next assay concerns neutrophils. Briefly: neutrophil O2 consumption (Clark-type electrode). It counts as cell-based, human. As to the method: FIG. 14 depicts the effect of various reagents on neutrophil O2 consumption. The Clark-type electrode and oxygen monitor were calibrated using air-saturated water according to the manufacturer's recommendations (Y.S.I. Inc., Yellow Springs, Ohio. A reading of 100% was considered to be equal to the concentration of oxygen in air-saturated water.
O2 consumption was measured using a Clark-type electrode with a Y.S.I. model P300 biological oxygen monitor and a micro oxygen chamber assembly (Y.S.I. Inc., Yellow Springs, Ohio). Assays were performed at 37° C. with ≈6×10^6 neutrophils per ml in a total volume of 600 μl. The cell suspensions, in Eppendorf test tubes, were warmed at 37° C. for several minutes before being applied to the microchamber. Effectors were injected carefully using a Hamilton syringe and stirred well with a microstirrer at a speed of ≈240 rpm. The cell suspensions were pre-incubated with effectors for 5 min prior to addition of PMA to a final concentration of 1.0 μM.

The structures appear in SMILES notation. Entries after “also recorded” stand apart in the source; their conditions may differ.

On to `CCCCCCCCCCCCC/C=C/[C@@H](O)[C@H](CO)[N+](C)(C)C` [TMS, N,N,N-trimethylsphingosine], for which, in assay [1], the “inhibition of tumor cell growth” value was “superior to sphingosine; also recorded: showed an advantage over DMS”. In the assay on BL6 cells (FIG. 6B, 6C), the “dose responsiveness of lung tumor colonization” value is “distinct dose responsiveness”. Further, the “suppression of lung colonization and tumor development” value in the assay with BL6 cells (irrespective of route or timing, FIG. 6) is “effective in suppressing lung colonization and tumor development”. The “neutrophil O2 consumption” value in the assay on neutrophils (Example 6) is on record as “noted effect”. In the assay on neutrophils (PMA, FIG. 14), the “inhibition of PMA-dependent enhancement of O2 consumption” value was “inhibited strongly”.
